Key:
Type in all cases: biochemical
Human Calpain 1/NS1 = target: T1, Human Calpain 1/NS1 (Homo sapiens, UniProt P07384); assay: Calpain inhibition continuous fluorescence (FRET) assay, Human Calpain 1/NS1; conditions: Column A; read-out: Human Calpain 1/NS1 IC50
T1 sequence (P07384 1-714): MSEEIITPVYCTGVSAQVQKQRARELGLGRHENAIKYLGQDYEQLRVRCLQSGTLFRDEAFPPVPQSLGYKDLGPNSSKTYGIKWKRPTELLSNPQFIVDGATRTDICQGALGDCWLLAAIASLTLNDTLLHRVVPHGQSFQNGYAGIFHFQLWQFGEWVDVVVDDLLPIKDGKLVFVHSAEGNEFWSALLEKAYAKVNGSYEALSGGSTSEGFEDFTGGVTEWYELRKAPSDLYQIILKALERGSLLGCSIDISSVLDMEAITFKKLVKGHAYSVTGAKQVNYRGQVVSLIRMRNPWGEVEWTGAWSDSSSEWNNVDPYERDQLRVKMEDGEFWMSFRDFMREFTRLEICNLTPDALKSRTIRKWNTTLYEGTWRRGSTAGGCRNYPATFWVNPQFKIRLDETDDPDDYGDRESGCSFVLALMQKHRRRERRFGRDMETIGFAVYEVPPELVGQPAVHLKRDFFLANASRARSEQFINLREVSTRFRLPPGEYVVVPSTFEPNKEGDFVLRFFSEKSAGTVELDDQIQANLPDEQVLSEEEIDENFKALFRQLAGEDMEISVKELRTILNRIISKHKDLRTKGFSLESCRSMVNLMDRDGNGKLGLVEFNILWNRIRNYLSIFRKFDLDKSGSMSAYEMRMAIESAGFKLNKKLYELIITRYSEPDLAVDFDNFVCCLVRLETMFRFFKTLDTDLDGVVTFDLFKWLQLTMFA
T1 sequence (P04632 1-268 partner): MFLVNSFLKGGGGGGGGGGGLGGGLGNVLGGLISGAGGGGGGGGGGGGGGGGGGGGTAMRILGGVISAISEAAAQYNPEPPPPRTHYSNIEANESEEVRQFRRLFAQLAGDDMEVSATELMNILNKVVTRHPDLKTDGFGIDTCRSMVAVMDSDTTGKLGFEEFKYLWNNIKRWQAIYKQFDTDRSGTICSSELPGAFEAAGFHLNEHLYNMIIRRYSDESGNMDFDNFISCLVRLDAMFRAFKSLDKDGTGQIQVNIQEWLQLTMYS
Method in brief: (§1)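 Buffer 50 mM Tris pH 7.5/100 mM NaCl/1 mM DTT; enzyme + cpd preinc 25C; start w/ FRET substrate + CaCl2; kinetic 490/520 nm, 10 min; slopes 1-5 min; 4-PL IC50.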

Human Calpain 2/NS1 = target: T2, Human Calpain 2/NS1 (Homo sapiens, UniProt P17655); assay: Calpain inhibition continuous fluorescence (FRET) assay, Human Calpain 2/NS1; conditions: Column B; read-out: Human Calpain 2/NS1 IC50
T2 sequence (P17655 1-700): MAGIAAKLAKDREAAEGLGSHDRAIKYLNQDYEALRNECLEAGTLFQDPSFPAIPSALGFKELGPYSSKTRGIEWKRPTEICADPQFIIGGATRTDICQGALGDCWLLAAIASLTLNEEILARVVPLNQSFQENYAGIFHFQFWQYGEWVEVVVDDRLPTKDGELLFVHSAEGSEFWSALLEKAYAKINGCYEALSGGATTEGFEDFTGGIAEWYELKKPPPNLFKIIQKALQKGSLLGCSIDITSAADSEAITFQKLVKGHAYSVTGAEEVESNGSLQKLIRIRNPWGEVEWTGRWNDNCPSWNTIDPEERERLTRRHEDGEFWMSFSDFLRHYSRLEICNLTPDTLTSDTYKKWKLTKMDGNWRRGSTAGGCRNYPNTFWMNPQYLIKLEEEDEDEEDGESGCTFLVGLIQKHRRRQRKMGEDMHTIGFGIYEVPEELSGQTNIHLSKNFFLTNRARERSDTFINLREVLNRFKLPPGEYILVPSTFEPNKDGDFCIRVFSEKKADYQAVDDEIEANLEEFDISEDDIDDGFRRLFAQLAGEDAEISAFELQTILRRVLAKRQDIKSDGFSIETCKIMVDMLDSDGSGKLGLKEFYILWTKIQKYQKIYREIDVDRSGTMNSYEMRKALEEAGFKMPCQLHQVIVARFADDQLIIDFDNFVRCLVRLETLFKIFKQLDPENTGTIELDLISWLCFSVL
T2 sequence (P04632 1-268 partner): T1 sequence (P04632 1-268 partner)
Method in brief: as §1

Human Calpain 9/NS1 = target: T3, Human Calpain 9/NS1 (Homo sapiens, UniProt O14815); assay: Calpain inhibition continuous fluorescence (FRET) assay, Human Calpain 9/NS1; conditions: Column C; read-out: Human Calpain 9/NS1 IC50
T3 sequence (O14815 1-690): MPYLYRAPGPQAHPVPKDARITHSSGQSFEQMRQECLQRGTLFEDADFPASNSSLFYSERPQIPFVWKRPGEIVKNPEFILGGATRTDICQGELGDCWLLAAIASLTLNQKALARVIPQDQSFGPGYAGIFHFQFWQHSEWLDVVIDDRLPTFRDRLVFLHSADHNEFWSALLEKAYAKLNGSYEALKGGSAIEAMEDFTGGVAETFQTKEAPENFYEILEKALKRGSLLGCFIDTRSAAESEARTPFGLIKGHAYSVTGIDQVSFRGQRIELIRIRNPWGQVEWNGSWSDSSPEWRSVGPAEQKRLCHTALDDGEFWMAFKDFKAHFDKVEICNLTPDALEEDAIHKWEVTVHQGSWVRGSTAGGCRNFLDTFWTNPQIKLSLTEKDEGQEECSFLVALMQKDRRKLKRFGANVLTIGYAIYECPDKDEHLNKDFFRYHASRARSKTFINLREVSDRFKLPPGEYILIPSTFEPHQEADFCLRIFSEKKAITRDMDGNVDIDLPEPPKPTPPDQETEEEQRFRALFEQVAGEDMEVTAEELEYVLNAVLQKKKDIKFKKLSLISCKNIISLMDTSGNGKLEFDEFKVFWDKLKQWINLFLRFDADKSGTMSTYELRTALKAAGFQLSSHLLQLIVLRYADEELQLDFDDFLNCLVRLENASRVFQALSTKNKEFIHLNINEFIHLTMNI
T3 sequence (P04632 1-268 partner): T1 sequence (P04632 1-268 partner)
Method in brief: as §1

IC50 (Human Calpain 1/NS1) [µM] | IC50 (Human Calpain 2/NS1) [µM] | IC50 (Human Calpain 9/NS1) [µM] | SMILES
< 3 | < 3 | 3 to 10 | O=C(NC1CC1)C(=O)[C@H](Cc1ccccc1)NC(=O)c1cncn1-c1ccc(-c2ncco2)cn1 [Compound 89, (S)—N-(4-(cyclopropylamino)-3,4-dioxo-1-phenylbutan-2-yl)-1-(5-(oxazol-2-yl)pyridin-2-yl)-1H-imidazole-5-carboxamide]
3 to 10 | < 3 | 3 to 10 | O=C[C@H](Cc1ccccc1)NC(=O)c1cncs1 [Compound 91, (S)—N-(1-oxo-3-phenylpropan-2-yl)thiazole-5-carboxamide]
3 to 10 | 3 to 10 | < 3 | O=C[C@H](Cc1ccccc1)NC(=O)c1cccc2nc(-c3ccccc3)[nH]c12 [Compound 92, (S)—N-(1-oxo-3-phenylpropan-2-yl)-2-phenyl-1H-benzo[D]imidazole-7-carboxamide]
< 3 | < 3 | < 3 | C=CCOc1ccc(C[C@@H](C=O)NC(=O)c2cc(C)nn2-c2ccccn2)cc1 [Compound 93, (S)—N-(1-(4-(allyloxy)phenyl)-3-oxopropan-2-yl)-3-methyl-1-(pyridin-2-yl)-1H-pyrazole-5-carboxamide]
< 3 | < 3 | < 3 | Cn1nc(-c2ccccc2)c(C(=O)N[C@@H](Cc2ccccc2)C(=O)C(N)=O)c1Cl [Compound 94, (S)—N-(4-amino-3,4-dioxo-1-phenylbutan-2-yl)-5-chloro-1-methyl-3-phenyl-1H-pyrazole-4-carboxamide]
< 3 | < 3 | < 3 | Cc1nsc(-c2ccccc2)c1C(=O)N[C@@H](Cc1ccccc1)C(=O)C(N)=O [Compound 96, (S)—N-(4-amino-3,4-dioxo-1-phenylbutan-2-yl)-3-methyl-5-phenylisothiazole-4-carboxamide]
< 3 | < 3 | < 3 | NC(=O)C(=O)[C@H](Cc1ccccc1)NC(=O)c1occc1-c1ccccc1 [Compound 104, (S)—N-(4-amino-3,4-dioxo-1-phenylbutan-2-yl)-3-phenylfuran-2-carboxamide]
< 3 | < 3 | < 3 | NC(=O)C(=O)[C@H](Cc1ccccc1)NC(=O)c1scnc1-c1ccccn1 [Compound 109, (S)—N-(4-amino-3,4-dioxo-1-phenylbutan-2-yl)-4-(pyridin-2-yl)thiazole-5-carboxamide]
< 3 | < 3 | 3 to 10 | O=C[C@H](Cc1ccccc1)NC(=O)c1cncn1-c1cc(-c2ncco2)ccn1 [Compound 110, (S)-1-(4-(oxazol-2-yl)pyridin-2-yl)-N-(1-oxo-3-phenylpropan-2-yl)-1H-imidazole-5-carboxamide]
> 10 | < 3 | > 10 | Cc1cc(C(=O)N[C@@H](Cc2ccccc2)C(=O)C(N)=O)nn1-c1ncc(-c2ccccc2)s1 [Compound 115, (S)—N-(4-amino-3,4-dioxo-1-phenylbutan-2-yl)-5-methyl-1-(5-phenylthiazol-2-yl)-1H-pyrazole-3-carboxamide]

Continued, compound first:

SMILES | IC50 (Human Calpain 1/NS1) [µM] | IC50 (Human Calpain 2/NS1) [µM] | IC50 (Human Calpain 9/NS1) [µM]
NC(=O)C(=O)[C@H](Cc1ccccc1)NC(=O)c1cncn1-c1cc(-c2ncco2)ccn1 [Compound 88, (S)—N-(4-amino-3,4-dioxo-1-phenylbutan-2-yl)-1-(4-(oxazol-2-yl)pyridin-2-yl)-1H-imidazole-5-carboxamide] | < 3 | < 3 | < 3
O=C[C@H](Cc1ccccc1)NC(=O)c1cncn1-c1nc2ccccc2[nH]1 [Compound 90, (S)-1-(1H-benzo[d]imidazol-2-yl)-N-(1-oxo-3-phenylpropan-2-yl)-1H-imidazole-5-carboxamide] | < 3 | < 3 | 3 to 10
Cc1cc(C)cc(C[C@H](NC(=O)c2c(C)noc2-c2ccccc2)C(=O)C(N)=O)c1 [Compound 97, (S)—N-(4-amino-1-(3,5-dimethylphenyl)-3,4-dioxobutan-2-yl)-3-methyl-5-phenylisoxazole-4-carboxamide] | < 3 | < 3 | < 3
Cc1noc(-c2ccccc2)c1C(=O)N[C@@H](Cc1ccccc1)C(=O)C(=O)NC1CC1 [Compound 100, (S)—N-(4-(cyclopropylamino)-3,4-dioxo-1-phenylbutan-2-yl)-3-methyl-5-phenylisoxazole-4-carboxamide] | < 3 | < 3 | < 3
Cc1noc(-c2ccccc2)c1C(=O)N[C@@H](Cc1ccccc1)C(=O)C(=O)NCc1ccc(Cl)c(Cl)c1 [Compound 101, (S)—N-(4-((3,4-dichlorobenzyl)amino)-3,4-dioxo-1-phenylbutan-2-yl)-3-methyl-5-phenylisoxazole-4-carboxamide] | > 10 | > 10 | > 10
O=C[C@H](Cc1ccccc1)NC(=O)c1cncn1-c1n[nH]c2ccccc12 [Compound 102, (S)-1-(1H-indazol-3-yl)-N-(1-oxo-3-phenylpropan-2-yl)-1H-imidazole-5-carboxamide] | < 3 | < 3 | < 3
Cc1cc(C(=O)N[C@@H](Cc2ccccc2)C(=O)C(N)=O)n(-c2cccc3ncccc23)n1 [Compound 108, (S)—N-(4-amino-3,4-dioxo-1-phenylbutan-2-yl)-3-methyl-1-(quinolin-5-yl)-1H-pyrazole-5-carboxamide] | < 3 | < 3 | < 3
O=C[C@H](Cc1ccccc1)NC(=O)c1cncn1-c1ccc(-c2ncco2)cn1 [Compound 111, (S)-1-(5-(oxazol-2-yl)pyridin-2-yl)-N-(1-oxo-3-phenylpropan-2-yl)-1H-imidazole-5-carboxamide] | < 3 | < 3 | < 3
Cc1cc(C(=O)N[C@@H](Cc2ccccc2)C(=O)C(N)=O)nn1-c1ncc(-c2ccccc2)o1 [Compound 114, (S)—N-(4-amino-3,4-dioxo-1-phenylbutan-2-yl)-5-methyl-1-(5-phenyloxazol-2-yl)-1H-pyrazole-3-carboxamide] | 3 to 10 | < 3 | 3 to 10
